How the values were obtained:
[1] = tested on: MAPT 3R mRNA (Microtubule associated protein Tau); test: RT-qPCR Assay to Quantify MAPT 3R mRNA in Cells; format: cell-based; details: MAPT 3R mRNA by RT-qPCR, GAPDH assay in same reaction; cells treated 24 h; 7-point concentration curve
IKBKAP gene = details: as reported in International Publication No. WO2016/115434; cited from earlier work

SMILES	EC (2-fold increase) [1] [µM]	potency in correcting mRNA splicing and promoting exon 20 inclusion in the IKBKAP gene (IKBKAP gene)
C[C@H](N)Cc1[nH]c2nc(Cl)nc(NCc3ccco3)c2c1F [Cpd 10, 6-[(2S)-2-aminopropyl]-2-chloro-5-fluoro-N-[(furan-2-yl)methyl]-7H-pyrrolo[2,3-d]pyrimidin-4-amine]	0.05 to 0.5	
Cc1c(C[C@H](C)N)n(C)c2nc(Cl)nc(NCc3ccco3)c12 [Cpd 35, 6-[(2S)-2-aminopropyl]-2-chloro-N-[(furan-2-yl)methyl]-5,7-dimethyl-7H-pyrrolo[2,3-d]pyrimidin-4-amine]	0.05 to 0.5	
C[C@H](N)Cc1c(F)c2c(NCc3ccncc3)nc(Cl)nc2n1C [Cpd 43, 6-[(2S)-2-aminopropyl]-2-chloro-5-fluoro-7-methyl-N-[(pyridin-4-yl)methyl]-7H-pyrrolo[2,3-d]pyrimidin-4-amine]	0.5 to 1	
C[C@H](N)Cc1c(Cl)c2c(NCc3ccco3)nc(Cl)nc2n1C [Cpd 23, 6-[(2S)-2-aminopropyl]-2,5-dichloro-N-[(furan-2-yl)methyl]-7-methyl-7H-pyrrolo[2,3-d]pyrimidin-4-amine]	0.05 to 0.5	
CNCCc1[nH]c2nc(Cl)nc(NCc3ccco3)c2c1Cl [Cpd 17, 2,5-dichloro-N-[(furan-2-yl)methyl]-6-[2-(methylamino)ethyl]-7H-pyrrolo[2,3-d]pyrimidin-4-amine]	1 to 1.5	
Clc1nc(NCc2ccncc2)c2cc[nH]c2n1 [Comparison Compound 1, 2-chloro-N-(pyridin-4-ylmethyl)-7H-pyrrolo[2,3-d]pyrimidin-4-amine]		very potent
C[C@H](N)Cc1c(F)c2c(NCc3ccncc3F)nc(Cl)nc2n1C [Cpd 41, 6-[(2S)-2-aminopropyl]-2-chloro-5-fluoro-N-[(3-fluoropyridin-4-yl)methyl]-7-methyl-7H-pyrrolo[2,3-d]pyrimidin-4-amine]	0.5 to 1	
C[C@H](N)Cc1c(F)c2c(NCc3nccs3)nc(Cl)nc2n1C [Cpd 38, 6-[(2S)-2-aminopropyl]-2-chloro-5-fluoro-7-methyl-N-[(1,3-thiazol-2-yl)methyl]-7H-pyrrolo[2,3-d]pyrimidin-4-amine]	0.5 to 1	
C[C@H](N)Cc1c(F)c2c(NCc3cccs3)nc(Cl)nc2n1C [Cpd 49, 6-[(2S)-2-aminopropyl]-2-chloro-5-fluoro-7-methyl-N-[(thiophen-2-yl)methyl]-7H-pyrrolo[2,3-d]pyrimidin-4-amine]	0.05 to 0.5	
C[C@H](N)Cc1c(F)c2c(NCc3ccco3)nc(Cl)nc2n1C [Cpd 24, 6-[(2S)-2-aminopropyl]-2-chloro-5-fluoro-N-[(furan-2-yl)methyl]-7-methyl-7H-pyrrolo[2,3-d]pyrimidin-4-amine]	0.05 to 0.5	
